Results from patent US20160040251A1, “BIOMARKERS FOR THE IDENTIFICATION OF CHEMOSENSITIVITY” (PHARMACYCLICS, LLC, priority 2013, published 2016).
pIC50: −log10 of the molar value.

Key:
[1] = test system: breast cancer cell lines (BCLs); assay: MTS cell viability assay in breast cancer cell lines; assay type: cell-based, human; conditions: for drug-response profiles of BCLs (high- or low-dose sensitive) versus abexinostat profiles: other HDACi compounds; for drug-response profiles of BCLs (high- or low-dose sensitive) versus abexinostat profiles / pIC50: 72 h; for pIC50: Homo sapiens, 72 h treatment, MTS
Procedure: A large series of cell lines (16 BCLs) were exposed to increasing concentrations (150 nM-2.5 μM) of the abexinostat, for 72 hours. These series represent all the molecular diversity observed in breast cancers.
Cell lines. A total of 16 breast cancer cell lines (BCLs) were used for the study. HCC1500, HCC1937, HCC1954, Hs 578T, MCF7, MDA-MB-134, MDA-MB-231, MDA-MB-361, MDA-MB-436, […] were obtained from American type culture collection (http://www.atcc.org/). SUM149 and SUM159 were obtained from Dr S.
Ethier's (Karmanos Cancer Center, Detroit, Mich., USA). S68 was obtained from Dr V. Castros (University de Rennes, France) and Br-Ca-MZ-01 from Dr V. Möbus (University of Ulm, Germany). All BCLs tested were derived from carcinomas. BCLs were grown using the recommended culture conditions (Neve et al, Cancer Cell 2006).
Drugs. BCLs were continuously treated for 72h in adherent conditions with Histone Deacetylase Inhibitors (HDACi): abexinostat, SAHA and valproic acid. For experiments abexinostat was prepared in a 23,1 mM stock solution, SAHA in a 0.5M stock solution, in Dimethyl Sulfoxide (DMSO) and stored at −20° C. Valproic acid was prepared in a 1M stock solution in Phosphate Buffered Saline (PBS) and stored at 4° C. For experiments, cells were treated with respective IC50s. DMSO or PBS were used as vehicle control (C<0.1%).
Cell viability. Inhibitory Concentrations 50 (IC50s) were evaluated using 3-(4,5-dimethylthiazol-2-yl)-5-(3-carboxymethoxyphenyl)-2-(4-sulfophenyl)-2H-tetrazolium (MTS) assay. BCLs were plated in adherent condition in 96-well plates at 5,000 cells per well; except for SUM159 plated at 1,000 cells per well. After 24 h, treatment with serial dilutions of HDACi was started. The effect of treatment on cell viability was estimated after 72 h by addition of 100 μL MTS solution (5 mg/mL in PBS) in each well. Cells were then incubated for 1 h at 37° C. Absorbance was measured at 540 nm in a fluorescence plate reader.

[2] = test system: ALDEFLUOR-positive CSC population of PDXs CRCM226X, CRCM392X, CRCM389X; assay: ALDEFLUOR assay on residual PDX tumors; assay type: in vivo, NOD/SCID mice; conditions: after three weeks of treatment
Procedure: (§1) Animal models Cells from these PDXs were transplanted orthotopically into fat pads of NOD/SCID mice without cultivation in vitro. Single cancer cells (1,000,000 cells CRCM226X and CRCM389X, 125,000 cells CRCM392X) are injected into fat pads of NOD/SCID mice and tumor growth are monitored. When the tumor size was approximately 150 mm^3, treatment is started with abexinostat (i.p, 12.5 mg/Kg, twice a day, 5 out of 7 days for three weeks) or docetaxel (10 mg/kg weekly for three weeks) or placebo.
(§2) Six mice were injected for each PDX and for each group. After 1, 2 and 3 weeks of treatment, two mice from each group were sacrificed according to ethic statements. Tumors were dissociated and cells were analyzed for the ALDEFLUOR phenotype and tumorsphere formation capacity. Cells from 3-week treated mice were reimplanted into secondary NOD/SCID mice with injection of 1,000 cells for each treated tumor.
ALDEFLUOR assay The ALDEFLUOR kit (Stem Cell Technologies) was used to isolate the population with high aldehyde dehydrogenase (ALDH) enzymatic activity using an LSR2 cytometer as previously described (Ginestier et al, Cell Stem Cell, 2007). For BCLs cultivated in adherent condition, ALDEFLUOR-positive populations were evaluated after 72-hour treatment with HDACi (IC50s) or vehicle. Primary human xenografts CRCM226X, CRCM389X and CRCM392X were harvested on the 3rd week of treatment with abexinostat, docetaxel or placebo, dissociated and stained for ALDEFLUOR analysis. To eliminate cells of mouse origin from the xenotransplanted tumors, staining with an anti-H2K^d biotin antibody (1/200; BD Biosciences) followed by staining with a secondary antibody labeled with streptavidin e450 (1/200; eBioscience) was used.

[3] = test system: patient-derived xenografts CRCM226X, CRCM392X, CRCM389X; assay: Tumor growth of patient-derived xenografts under treatment; assay type: in vivo, NOD/SCID mice; conditions: abexinostat i.p. 12.5 mg/Kg twice a day 5 of 7 days, docetaxel 10 mg/kg weekly, three weeks
Text: To confirm the impact of abexinostat treatment on the CSC population from breast cancers with low XIST expression, three different patient-derived xenografts (PDXs) with distinct Xist expression level (CRCM226X, Xist^low; CRCM392X, Xist^med; CRCM389X, Xist^high) were utilized.
as §1, §2

[4] = test system: patient-derived xenografts CRCM226X, CRCM392X, CRCM389X; assay: Reimplantation of cells from treated PDXs into secondary mice (tumorigenicity); assay type: in vivo, NOD/SCID mice
Procedure: as §2
Tumor growth was compared with that of placebo-treated controls. An inhibition of the CRCM226X (Xist^low) PDX growth after abexinostat and docetaxel treatment was observed. […] After three weeks of treatment, the animals were sacrificed and the proportion of ALDEFLUOR-positive CSCs was measured in each residual tumor (FIG. 6B). All PDX models presented an increase in the ALDEFLUOR-positive population isolated from docetaxel-treated tumors compared to the untreated control. […] Tumorigenicity is directly related to the presence of CSCs and this assay gives an estimate of the proportion of residual tumorigenic CSCs. For each treatment condition (placebo, abexinostat, docetaxel), 1,000 cells isolated from treated-tumors were reimplanted.

[5] = CRCM226X (Xist low), 1,000 cells from 3-week treated tumors reimplanted
[6] = CRCM389X (Xist high), 1,000 cells from 3-week treated tumors reimplanted
[7] = CRCM392X (Xist med), 1,000 cells from 3-week treated tumors reimplanted

O=C(CCCCCCC(=O)Nc1ccccc1)NO [SAHA, vorinostat]
drug-response profiles of BCLs (high- or low-dose sensitive) versus abexinostat profiles [1]: confirmed

CCCC(CCC)C(=O)O [Valproic Acid, valproic acid]
drug-response profiles of BCLs (high- or low-dose sensitive) versus abexinostat profiles [1]: confirmed

CN(C)Cc1c(C(=O)NCCOc2ccc(C(=O)NO)cc2)oc2ccccc12 [abexinostat]
ALDEFLUOR-positive population versus untreated control ([2]; CRCM226X (Xist low)): two-fold decrease
ALDEFLUOR-positive population versus untreated control ([2]; CRCM389X (Xist high)): increase
ALDEFLUOR-positive population versus untreated control ([2]; CRCM392X (Xist med)): two-fold decrease
PDX tumor growth versus placebo ([3]; CRCM226X (Xist low)): inhibition
PDX tumor growth versus placebo ([3]; CRCM389X (Xist high)): no or discrete effect
PDX tumor growth versus placebo ([3]; CRCM392X (Xist med)): no or discrete effect
tumor regrowth after reimplantation versus placebo-treated [4, 5]: incapacity to regenerate a tumor
tumor regrowth after reimplantation versus placebo-treated [4, 6]: higher regrowth kinetic
tumor regrowth after reimplantation versus placebo-treated [4, 7]: delay in tumor regrowth
pIC50 ([1]; nine BCLs sensitive to low-dose): 6.34 to 6.77
pIC50 ([1]; seven BCLs sensitive to high-dose): < 6.15

CC(=O)O[C@@]12CO[C@@H]1C[C@H](O)[C@@]1(C)C(=O)[C@H](O)C3=C(C)[C@@H](OC(=O)[C@H](O)[C@@H](NC(=O)OC(C)(C)C)c4ccccc4)C[C@@](O)([C@@H](OC(=O)c4ccccc4)[C@H]21)C3(C)C [docetaxel]
ALDEFLUOR-positive population versus untreated control ([2]; CRCM226X (Xist low)): increase
ALDEFLUOR-positive population versus untreated control ([2]; CRCM389X (Xist high)): increase
ALDEFLUOR-positive population versus untreated control ([2]; CRCM392X (Xist med)): increase
PDX tumor growth versus placebo ([3]; CRCM226X (Xist low)): inhibition
PDX tumor growth versus placebo ([3]; CRCM389X (Xist high)): no or discrete effect
PDX tumor growth versus placebo ([3]; CRCM392X (Xist med)): no or discrete effect
tumor regrowth after reimplantation versus placebo-treated [4, 5]: tumor regrowth comparable to placebo-treated tumors
tumor regrowth after reimplantation versus placebo-treated [4, 6]: tumor regrowth comparable to placebo-treated tumors
tumor regrowth after reimplantation versus placebo-treated [4, 7]: tumor regrowth comparable to placebo-treated tumors
drug-response profile compared to abexinostat profile ([1]; conventional chemotherapeutic agent, BCLs): totally distinct
